Experimental data: PubChem BioAssay AID2060486 (Molecular Pharmacology Branch, DTP, NCI, 2025)

Test system: IGROV1 complex spheroids (HUVEC, MSC), viability % test/control
Test: Anticancer human tumor IGROV1 cell line growth inhibition [GQUAD];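 further: spheroids exposed to compounds for 7 days before readout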;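 on viability, T/C: 100% = DMSO vehicle control viability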
Conditions: for IC50: curve of first compound; for viability, T/C: stronger effect = lower value; active means viability on the fitted dose curve at most 10% of control; inactive means the rest
Procedure, shortened: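 Tumor cells were grown as complex spheroids with HUVEC endothelial cells and mesenchymal stem cells as stroma. G-quadruplex stabilizers were combined with targeted agents over half-log dilutions from near the clinical Cmax, or from 10 microM.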

[1] = second compound 0.0316 µM, first compound 0.0316 µM
[2] = second compound 0.0316 µM, first compound 0.1 µM
[3] = second compound 0.0316 µM, first compound 0.316 µM
[4] = second compound 0.0316 µM, first compound 1 µM
[5] = second compound 0.0316 µM, first compound 3.16 µM
[6] = second compound 0.0316 µM, first compound 10 µM
[7] = second compound 0.1 µM, first compound 0.0316 µM
[8] = second compound 0.1 µM, first compound 0.1 µM
[9] = second compound 0.1 µM, first compound 0.316 µM
[10] = second compound 0.1 µM, first compound 1 µM
[11] = second compound 0.1 µM, first compound 3.16 µM
[12] = second compound 0.1 µM, first compound 10 µM
[13] = second compound 0.316 µM, first compound 0.0316 µM
[14] = second compound 0.316 µM, first compound 0.1 µM
[15] = second compound 0.316 µM, first compound 0.316 µM
[16] = second compound 0.316 µM, first compound 1 µM
[17] = second compound 0.316 µM, first compound 3.16 µM
[18] = second compound 0.316 µM, first compound 10 µM
[19] = second compound 1 µM, first compound 0.0316 µM
[20] = second compound 1 µM, first compound 0.1 µM
[21] = second compound 1 µM, first compound 0.316 µM
[22] = second compound 1 µM, first compound 1 µM
[23] = second compound 1 µM, first compound 3.16 µM
[24] = second compound 1 µM, first compound 10 µM
[25] = second compound 3.16 µM, first compound 0.0316 µM
[26] = second compound 3.16 µM, first compound 0.1 µM
[27] = second compound 3.16 µM, first compound 0.316 µM
[28] = second compound 3.16 µM, first compound 1 µM
[29] = second compound 3.16 µM, first compound 3.16 µM
[30] = second compound 3.16 µM, first compound 10 µM
[31] = second compound 10 µM, first compound 0.0316 µM
[32] = second compound 10 µM, first compound 0.1 µM
[33] = second compound 10 µM, first compound 0.316 µM
[34] = second compound 10 µM, first compound 1 µM
[35] = second compound 10 µM, first compound 3.16 µM
[36] = second compound 10 µM, first compound 10 µM

C#Cc1c(F)ccc2cc(O)cc(-c3ncc4c(N5CC6CCC(C5)N6)nc(OCC56CCCN5CC(F)C6)nc4c3F)c12 (stereo unspecified) + Cc1[nH]c2ccc(F)cc2c1-c1nc2c3cccnc3c3ncccc3c2[nH]1
inactive: viability, T/C [1] 101% | viability, T/C [2] 76.3% | viability, T/C [3] 99.2% | viability, T/C [4] 78.7% | viability, T/C [5] 89.2% | viability, T/C [6] 60.1% | viability, T/C [7] 88.4% | viability, T/C [8] 70.3% | viability, T/C [9] 68.4% | viability, T/C [10] 81.6% | viability, T/C [11] 91.4% | viability, T/C [12] 62.2% | viability, T/C [13] 66.2% | viability, T/C [14] 40% | viability, T/C [15] 69.3% | viability, T/C [16] 58.6% | viability, T/C [17] 58.7% | viability, T/C [18] 12.7%
< 31.6 nM: IC50 (second compound 1 µM) | IC50 (second compound 3.16 µM) | IC50 (second compound 10 µM)
3920 nM: IC50 (second compound 0.316 µM)
> 10000 nM: IC50 (second compound 0.0316 µM) | IC50 (second compound 0.1 µM)
active: viability, T/C [19] 2.66% | viability, T/C [20] 3.87% | viability, T/C [21] 2.81% | viability, T/C [22] 3.06% | viability, T/C [23] 2.68% | viability, T/C [24] 1.82% | viability, T/C [25] 3.12% | viability, T/C [26] 3.21% | viability, T/C [27] 3.09% | viability, T/C [28] 2.69% | viability, T/C [29] 2.86% | viability, T/C [30] 1.68% | viability, T/C [31] 2.87% | viability, T/C [32] 3.1% | viability, T/C [33] 3.6% | viability, T/C [34] 2.65% | viability, T/C [35] 2.34% | viability, T/C [36] 1.27%

C=CCn1c(=O)c2cnc(Nc3ccc(N4CCN(C)CC4)cc3)nc2n1-c1cccc(C(C)(C)O)n1 + Cc1[nH]c2ccc(F)cc2c1-c1nc2c3cccnc3c3ncccc3c2[nH]1
active: viability, T/C [4] 3.13% | viability, T/C [5] 2.59% | viability, T/C [6] 2.44% | viability, T/C [10] 2.29% | viability, T/C [11] 3.17% | viability, T/C [12] 2.44% | viability, T/C [15] 2.19% | viability, T/C [16] 1.65% | viability, T/C [17] 2.64% | viability, T/C [18] 1.76% | viability, T/C [19] 3.28% | viability, T/C [20] 3.17% | viability, T/C [21] 2.16% | viability, T/C [22] 2.04% | viability, T/C [23] 2.4% | viability, T/C [24] 1.76% | viability, T/C [25] 3.09% | viability, T/C [26] 2.89% | viability, T/C [27] 2.25% | viability, T/C [28] 1.95% | viability, T/C [29] 2.45% | viability, T/C [30] 1.48% | viability, T/C [31] 3.85% | viability, T/C [32] 2.84% | viability, T/C [33] 2.5% | viability, T/C [34] 2.14% | viability, T/C [35] 2.23% | viability, T/C [36] 1.57%
< 31.6 nM: IC50 (second compound 0.316 µM) | IC50 (second compound 1 µM) | IC50 (second compound 3.16 µM) | IC50 (second compound 10 µM)
141 nM: IC50 (second compound 0.0316 µM)
155 nM: IC50 (second compound 0.1 µM)
inactive: viability, T/C [1] 98.8% | viability, T/C [2] 66.5% | viability, T/C [3] 10.9% | viability, T/C [7] 98.9% | viability, T/C [8] 72.9% | viability, T/C [9] 12.7% | viability, T/C [13] 40.6% | viability, T/C [14] 19.9%

CC(C)(O)C1CCC(Nc2ccc3ncc(-c4cccc(C(F)(F)F)c4)n3n2)CC1 (stereo unspecified) + Cc1[nH]c2ccc(F)cc2c1-c1nc2c3cccnc3c3ncccc3c2[nH]1
2010 nM: IC50 (second compound 0.0316 µM)
623 nM: IC50 (second compound 0.316 µM)
inactive: viability, T/C [1] 93.8% | viability, T/C [2] 83.1% | viability, T/C [3] 94.3% | viability, T/C [4] 82.7% | viability, T/C [5] 27.4% | viability, T/C [6] 30% | viability, T/C [7] 99.3% | viability, T/C [8] 83.3% | viability, T/C [9] 102% | viability, T/C [10] 68.5% | viability, T/C [11] 32.9% | viability, T/C [12] 33.4% | viability, T/C [13] 69.6% | viability, T/C [14] 70.6% | viability, T/C [15] 65.3% | viability, T/C [16] 38.8%
active: viability, T/C [17] 6.69% | viability, T/C [18] 5.42% | viability, T/C [19] 3.27% | viability, T/C [20] 3.08% | viability, T/C [21] 4.14% | viability, T/C [22] 3.08% | viability, T/C [23] 3.37% | viability, T/C [24] 2.43% | viability, T/C [25] 2.86% | viability, T/C [26] 3.13% | viability, T/C [27] 3.35% | viability, T/C [28] 3.26% | viability, T/C [29] 2.39% | viability, T/C [30] 2.06% | viability, T/C [31] 3.41% | viability, T/C [32] 3.18% | viability, T/C [33] 3.27% | viability, T/C [34] 2.99% | viability, T/C [35] 2.37% | viability, T/C [36] 2.38%
1820 nM: IC50 (second compound 0.1 µM)
< 31.6 nM: IC50 (second compound 1 µM) | IC50 (second compound 3.16 µM) | IC50 (second compound 10 µM)
